The subject of one data set is HSV-2. The experiment in a line: In-vitro activity, HSV-2 infected Vero. In kind it is cell-based. Conditions: Human alphaherpesvirus 2; Vero cells. As to the method:
(§1) The in-vitro activity for (HSV-1 infected Vero), (HSV-2 infected Vero) and (HSV-1 (ACV resistant) infected vero) was tested as outlined in WO2017/174640 and WO2019/068817. For comparison, the non-deuterated matched-pair to Example 1 of the present application has been tested, which is hereinafter designated as Comparative Example C7 and which corresponds to Example 7 of WO2017/174640.

Another data set relates to HSV-1. The experiment in a line: In-vitro activity, HSV-1 infected Vero. Type of data set: cell-based. Conditions: Human alphaherpesvirus 1; Vero cells. As to the method:
as §1

In a further data set the test system is HSV-1 (ACV resistant). Put plainly: In-vitro activity, HSV-1 (ACV resistant) infected vero. Type of data set: cell-based. Conditions: Human alphaherpesvirus 1, Vero, read-out: IC50 (HSV-1 ACV resistant). As to the method:
as §1

A short description of data set [1]: Microsomal stability, human liver microsomes, conversion to hydroxylated metabolite. Type of data set: in vitro ADME. Conditions: 1st and 2nd replicate. On the procedure:
Example 1 and the non-deuterated matched pair (Comparative Example C7/Example 7 from WO2017/174640) were incubated using three different batches of human liver microsomes (HLM) for a period of 60 min. The conversion to the hydroxylated metabolite was monitored by LC-MS.
On the technique in general: Liver microsomes are a subcellular fraction often used to study metabolism.

Data set [2] can be described thus: Brain exposure and brain-to-plasma ratio in mouse. In kind it is in vivo. Conditions: C57BI/6N mouse; for behaviour and clinical signs after dosing: oral cassette dosing 10 mg/kg each; for Kp at 4 h: brain/plasma; for Kp at 4 h / concentration at 4 h: oral cassette 10 mg/kg. As to the method: The brain and plasma exposure for Example 6 as well as for Example 4/2 and for its non-deuterated matched-pair (Comparative Example C4/2/Example 7(—) from WO2017/174640) was asessed in 3 mice (strain C57BI/6N, weight 21-26 g) after oral cassette dosing with a dose of 10 mg/kg each after 4 h. The compounds were formulated in 5% DMSO and 95% aq. HPMC (0.5%). […] Plasma from the retrobulbar venous plexus was analyzed by LC-MS.

The nature of data set [3]: Pharmacokinetics in mouse. Type of data set: in vivo. To be noted: male C57BI/6N mouse; for % AUCextra / t1/2z / tz / AUC(0-inf) / AUC(0-t) / C0 / clearance / concentration at 24 h / Vd / Cmax / Tmax: cassette; for AUC(0-inf) / AUC(0-t) / C0 / clearance / concentration at 24 h / Vd / bioavailability / Cmax / Tmax: plasma; for concentration at 24 h: read-out: Cz; for Vd: read-out: Vz; for bioavailability: po 10 mg/kg vs iv 2 mg/kg. As to the method:
Plasma from the retrobulbar venous plexus was analyzed by LC-MS. The obtained data obtained is as follows (NC=not calculable): […]

A short description of data set [4]: Additional microsomal stability, human microsomes, hydroxy metabolite formation. In kind it is in vitro ADME. To be noted: human (mixed gender) microsomes, 60 min. On the procedure: The formation of the hydroxy metabolites was quantified via peak area ratio towards the corresponding non-deuterated matched pair when incubating the samples in rat microsomes (SD rat, male) or human microsomes (mixed gender) for 60 min at Admescope. The peak signal (positive mode) was quantified with a Waters Acquity UPLC+Thermo Q-Exactive Focus Orbitrap MS on a Phenomenex Kinetex Biphenyl (2.1×50 mm, 1.7 μm particle size […]) column.

Where [5] appears, read: brain, read-out: mean brain conc. with SD.
[6] abbreviates: plasma, read-out: mean plasma conc. with SD.

Molecules are shown by their SMILES. “And” between values parts separate entries of the source, which are not always exact repeats. Equal values may be shown once. Read-outs that look alike come from different tables or passages of the source.

In the case of `Cc1nc(N(C)C(=O)Cc2ccc(-c3cc(F)ccc3F)cc2)sc1S(C)(=N)=O` (racemic) [Comparative Example C7, reference compound], the IC50 with HSV-2, in the data set with HSV-1 and in the data set with HSV-1 (ACV resistant) was 25 to 100 nM in each case. The “Parent [nM] 60 min” value is 1053 nM and 1255 nM in data set [1] (HLM batch 38292, 60 min, listed as Comp. Example C7); 1122 nM and 910 nM in data set [1] (HLM batch 5061002, 60 min, listed as Comp. Example C7); 937 nM and 973 nM in data set [1] (HLM batch 6029002, 60 min, listed as Comp. Example C7).
As for `[2H]C([2H])([2H])c1nc(N(C)C(=O)Cc2ccc(-c3cc(F)ccc3F)cc2)sc1S(C)(=N)=O` (racemic) [Example 1, 2-(2′,5′-Difluoro-[1,1′-biphenyl]-4-yl)-N-methyl-N-(4-(methyl-d3)-5-(S-methyl-sulfonimidoyl)thiazol-2-yl)acetamide], the IC50 in the data set with HSV-2, in the data set with HSV-1 and in the data set with HSV-1 (ACV resistant) was 25 to 125 nM each time. Further, the “Parent [nM] 60 min” value is 928 nM and 1085 nM in data set [1] (HLM batch 38292, 60 min); 1083 nM and 1058 nM in data set [1] (HLM batch 5061002, 60 min); 1231 nM and 1159 nM in data set [1] (HLM batch 6029002, 60 min).
As for `[2H]C([2H])([2H])c1nc(N(C)C(=O)Cc2ccc(-c3cc(F)ccc3F)cc2)sc1[S@](C)(=N)=O` (single isomer, unassigned) [Example 4/1], the IC50 with HSV-2 is 50 to 250 nM; with HSV-1, 50 to 150 nM; with HSV-1 (ACV resistant) it was 50 to 150 nM.
Regarding `[2H]C([2H])([2H])c1nc(N(C)C(=O)Cc2ccc(-c3cc(F)ccc3F)cc2)sc1[S@@](C)(=N)=O` (single isomer, unassigned) [Example 4/2], the “improvement of plasma and brain exposure compared to the non-deuterated matched-pair” value in data set [2] (oral 10 mg/kg, after 4 h) is reported as “over 50%”. In addition, in data set [2], the “behaviour and clinical signs after dosing” value (“behaviour and clinical signs” for short) is on record as “no clinical signs observed”; the Kp at 4 h worked out at 1.57. Besides, in data set [2] (setting [5]), the concentration at 4 h is 8610 ± 2180 ng/mL. For the same compound, in data set [2] (setting [6]), the concentration at 4 h was determined as 5470 ± 1320 ng/mL. The IC50 with HSV-2 lay within 10 to 90 nM. The same compound had an IC50 in the data set with HSV-1 of 5 to 75 nM. Further, in the data set on HSV-1 (ACV resistant), the IC50 lay within 5 to 75 nM. For the same compound, in data set [3] (iv 2 mg/kg), the “% AUCextra” value was determined as 24.9%, the t1/2z turned out to be 11.3 h, the tz was determined as 24 h and the AUC(0-inf) is 10600 ng·h/mL. In addition, in data set [3] (iv 2 mg/kg), the AUC(0-t) stood at 8000 ng·h/mL, the C0 amounted to 16.2 ng/mL, the clearance is 3.13 mL/min/kg and the concentration at 24 h came out at 162 ng/mL. Besides, in data set [3] (iv 2 mg/kg), the Vd turned out to be 3.07 L/kg. Besides, in data set [3] (po 10 mg/kg), the tz was 24 h, the AUC(0-t) came to 80200 ng·h/mL, the peak level (Cmax) was 4610 ng/mL and the Tmax was determined as 4 h. The concentration at 24 h in data set [3] (po 10 mg/kg) turned out to be 2730 ng/mL. For the same compound, the bioavailability in data set [3] was found to be 201%.
`[2H]C([2H])([2H])Oc1ccccc1-c1ccc(CC(=O)N(C)c2nc(C)c(S(N)(=O)=O)s2)cc1` [5/2]: the half-maximal inhibitory concentration (IC50) in the data set with HSV-2 lay in the range of 30 to 150 nM; in the data set with HSV-1, 10 to 100 nM; with HSV-1 (ACV resistant) it was 10 to 100 nM.
As for `[2H]C([2H])([2H])c1nc(N(C)C(=O)Cc2ccc(-c3cc(F)ccc3F)cc2F)sc1S(N)(=O)=O` [6/2], the results for the IC50 in the data set on HSV-2, with HSV-1 and with HSV-1 (ACV resistant) were 3 to 75 nM, 2 to 60 nM and 2 to 60 nM, respectively.
For the compound `Cc1nc(N(C)C(=O)Cc2ccc(-c3cc(F)ccc3F)cc2)sc1[S@@](C)(=N)=O` [Comparative Example C4/2, reference compound], in data set [2], the “behaviour and clinical signs” value is on record as “no clinical signs observed”; the concentration ratio (Kp) at 4 h came to 1.57. Also, the concentration at 4 h in data set [2] (setting [5]) was determined as 5610 ± 1450 ng/mL. The concentration at 4 h in data set [2] (setting [6]) is 3580 ± 726 ng/mL. Further, in data set [3] (iv 2 mg/kg), the “% AUCextra” value is given as 12.4%, the t1/2z stood at 7.7 h, the tz was determined as 24 h and the AUC(0-inf) turned out to be 6390 ng·h/mL. For the same compound, in data set [3] (iv 2 mg/kg), the AUC(0-t) amounted to 5600 ng·h/mL, the C0 came to 10.4 ng/mL, the clearance was 5.22 mL/min/kg and the concentration at 24 h was found to be 71.5 ng/mL. Besides, in data set [3] (iv 2 mg/kg), the Vd is 3.47 L/kg. Moreover, in data set [3] (po 10 mg/kg), the tz is reported as 24 h, the AUC(0-t) amounted to 46600 ng·h/mL, the peak level (Cmax) was 2960 ng/mL and the time of peak concentration (Tmax) is 4 h. Also, the concentration at 24 h in data set [3] (po 10 mg/kg) amounted to 1260 ng/mL. In addition, the bioavailability in data set [3] was 167%.
For the compound `[2H]c1c([2H])c([2H])c(-c2ccc(CC(=O)N(C)c3nc(C)c(S(N)(=O)=O)s3)cc2)c([2H])c1[2H]` [Example 5, 2-([1,1′-Biphenyl]-4-yl-2′,3′,4′,5′,6′-d5)-N-methyl-N-(4-methyl-5-sulfamoyl-thiazol-2-yl)acetamide], the values for the IC50 with HSV-2, in the data set with HSV-1 and in the data set on HSV-1 (ACV resistant) were 25 to 125 nM, 1 to 50 nM and 1 to 50 nM, respectively.
For the compound `[2H]C([2H])([2H])Oc1cccc(-c2ccc(CC(=O)N(C)c3nc(C)c(S(N)(=O)=O)s3)cc2)c1` [Example 5/1], the IC50 in the data set with HSV-2 was in the range of 5 to 75 nM; in the data set on HSV-1, 10 to 100 nM; with HSV-1 (ACV resistant), 10 to 100 nM.
Consider `[2H]C([2H])([2H])c1nc(N(C)C(=O)Cc2ccc(-c3cc(F)ccc3F)cc2)sc1S(N)(=O)=O` [Example 6, 2-(2′,5′-Difluoro-[1,1′-biphenyl]-4-yl)-N-methyl-N-(4-(methyl-d3)-5-sulfamoylthiazol-2-yl)acetamide], for which, in data set [2], the “behaviour and clinical signs” value is “no clinical signs observed”. For the same compound, in data set [2], the Kp at 4 h was 0.78. Further, the concentration at 4 h is 3220 ± 1910 ng/mL in data set [2] (setting [5]) and 4130 ± 1760 ng/mL in data set [2] (setting [6]). Moreover, the “hydroxy metabolite peak area ratio” value in data set [4] was “BLQ”. Also, the IC50 with HSV-2, with HSV-1 and in the data set on HSV-1 (ACV resistant) was 2 to 60 nM each time.
Take `[2H]C([2H])([2H])c1nc(N(C)C(=O)Cc2ccc(-c3cccc(F)c3)cc2F)sc1S(N)(=O)=O` [Example 6/1]: the IC50 in the data set on HSV-2 was 4 to 75 nM; with HSV-1, 2 to 60 nM; in the data set on HSV-1 (ACV resistant), 2 to 60 nM.

By IC50 is commonly meant the midpoint of a concentration-inhibition curve. The term Kp denotes tissue or fluid exposure divided by exposure in the circulation. A word on the AUC(0-inf): it is total exposure, with the tail of the curve extrapolated. What is called AUC(0-t) is exposure summed from dosing to a finite time, without extrapolation to infinity. Read a high AUC(0-t) as more exposure. A word on the clearance: it is the rate of elimination divided by the concentration. Broadly, the Cmax is the maximum level reached in the sampled fluid or tissue. As usually defined, the Tmax is the time from dosing to the highest level.

For the origin of these results see patent US12552756B2, “Deuterated aminothiazole compounds as antiviral compounds” (priority 2020, dated 2026).
